Reference: PMC7226469, “Polyketide-Derived Secondary Metabolites from a Dothideomycetes Fungus, Pseudopalawania siamensis gen. et sp. nov., (Muyocopronales) with Antimicrobial and Cytotoxic Activities” (Biomolecules, 2020)
Values after ≈ are worked out from the molar mass of the structure shown. Structures can show the parent of a compound that is named as a salt. Where two headings read alike, the source gives them in different places.

What was measured:
Micrococcus luteus = assay: MIC, 96-well serial dilution; format: cell-based; conditions: for MIC: Micrococcus luteus
Experimental: (§1) Gentamicin, kanamycin, nystatin, and oxytetracycline were used as positive controls against tested organisms. […] Epothilone B and methanol were used as positive and negative control, respectively.
(§2) The polyketides 1–5 were evaluated for their antimicrobial activity against selected microorganisms (Table 3) and cytotoxicity against two mammalian cell lines, HeLa cells KB3.1 and mouse fibroblast cell line L929 (Table 4). The starting concentration for antimicrobial assay and cytotoxicity assay were 66.7 and 300 µg/mL, respectively and the substances were dissolved in MeOH (1 mg/mL). […] Results were expressed as MIC or minimum inhibitory concentration (μg/mL) and IC50 or half maximal inhibitory concentration (μM) (Table 3 and Table 4).

Bacillus subtilis = assay: MIC, 96-well serial dilution; format: cell-based; conditions: for MIC: Bacillus subtilis
Experimental: as §1, §2

Escherichia coli = assay: MIC, 96-well serial dilution; format: cell-based; conditions: strain DSM 1116, starting concentration 66.7 µg/mL, control volume in brackets; further: key: (-): no inhibition
Experimental: as §1, §2

Pseudomonas aeruginosa = assay: MIC, 96-well serial dilution; format: cell-based; conditions: strain PA14; starting concentration 66.7 µg/mL; control volume in brackets; further: key: (-): no inhibition
Experimental: as §1, §2

Mucor hiemalis = assay: MIC, 96-well serial dilution; format: cell-based; on Minimum Inhibitory Concentration (MIC): key: (-): no inhibition
Experimental: as §1, §2

[1] = tested on: Chromobacterium violaceum; assay: MIC, 96-well serial dilution; format: cell-based; conditions: strain DSM 30191, starting concentration 66.7 µg/mL, control volume in brackets; further: key: (-): no inhibition
Experimental: as §1, §2

Staphylococcus aureus = assay: MIC, 96-well serial dilution; format: cell-based; conditions: for MIC: Staphylococcus aureus
Experimental: as §1, §2

Mouse fibroblast L929 = assay: In vitro cytotoxicity, MTT assay; format: cell-based
Experimental: as §1, §2

HeLa cells KB3.1 = assay: In vitro cytotoxicity, MTT assay; format: cell-based; conditions: Homo sapiens
Experimental: as §1, §2

[2] = tested on: various fungal and bacterial strains; assay: Antimicrobial activity against selected microorganisms (summary statements); format: cell-based; conditions: for Antimicrobial activity (in words): fungi and bacteria of Table 3
Experimental: as §1, §2

[3] = tested on: HeLa cells KB3.1 and mouse fibroblast cell line L929; assay: Cytotoxicity against two mammalian cell lines (summary statements); conditions: HeLa KB3.1 and L929
Experimental: as §1, §2

[4] = tested on: Schizosaccharomyces pombe; assay: MIC, 96-well serial dilution; format: cell-based; conditions: strain DSM 70572; starting concentration 66.7 µg/mL; control volume in brackets
Experimental: as §1, §2

Candida albicans = assay: MIC, 96-well serial dilution; format: cell-based
Experimental: as §1, §2

Cryptococcus neoformans = assay: MIC, 96-well serial dilution; format: cell-based; conditions: strain DSM 15466; starting concentration 66.7 µg/mL; control volume in brackets
Experimental: as §1, §2

Pichia anomala = assay: MIC, 96-well serial dilution; format: cell-based; conditions: strain DSM 6766; starting concentration 66.7 µg/mL; control volume in brackets
Experimental: as §1, §2

Rhodoturula glutinis = assay: MIC, 96-well serial dilution; format: cell-based; conditions: strain DSM 10134; starting concentration 66.7 µg/mL; control volume in brackets
Experimental: as §1, §2

E. coli = tested on: E. coli; parameters: method as in PMID 30258223; conditions: cited from earlier work
[5] = tested on: MDA-MB-435 human melanoma cells; parameters: method as in PMID 23232928; conditions: cited from earlier work
M. luteus = tested on: M. luteus; parameters: method as in PMID 30258223; conditions: cited from earlier work
[6] = tested on: Pseudoalteromonas nigrifaciens; parameters: method as in PMID 30258223; conditions: cited from earlier work
[7] = tested on: SW620 human colorectal adenocarcinoma cell lines; parameters: method as in PMID 23232928; conditions: cited from earlier work
CCR5-tropic HIV-1 = tested on: CCR5-tropic HIV-1; parameters: method as in PMID 29258357; conditions: inhibition of infection; cited from earlier work
CXCR4-tropic HIV-1 = tested on: CXCR4-tropic HIV-1; parameters: method as in PMID 29258357; conditions: inhibition of infection; cited from earlier work
B. subtilis = tested on: B. subtilis; parameters: method as in PMID 30258223; conditions: cited from earlier work
Mycobacterium smegmatis = assay: MIC, 96-well serial dilution; format: cell-based
Experimental: as §1, §2

[8] = parameters: method as in PMID 30258223; conditions: cited from earlier work
[9] = tested on: several cancer cell lines; parameters: method as in PMID 30258223; conditions: cell proliferation inhibition and apoptosis induction; cited from earlier work
[10] = DSM1790, strain DSM 1790, starting concentration 66.7 µg/mL, control volume in brackets, read-out: Minimum Inhibitory Concentration (MIC)
[11] = DSM10, strain DSM 10, starting concentration 66.7 µg/mL, control volume in brackets, read-out: Minimum Inhibitory Concentration (MIC)
[12] = strain DSM 6766, starting concentration 66.7 µg/mL, control volume in brackets
[13] = DSM346, strain DSM 346, starting concentration 66.7 µg/mL, control volume in brackets, read-out: Minimum Inhibitory Concentration (MIC)
[14] = MTT assay, mouse fibroblast L929, starting concentration 66 μg/mL, read-out: IC50
[15] = MTT assay, HeLa cells KB3.1, starting concentration 66 μg/mL, read-out: IC50
[16] = strain DSM 1790, starting concentration 66.7 µg/mL, control volume in brackets
[17] = strain DSM 10, starting concentration 66.7 µg/mL, control volume in brackets
[18] = strain DSM 346, starting concentration 66.7 µg/mL, control volume in brackets

COC(=O)C1(C2OC(=O)CC2C)CC(=O)c2c(O)ccc(-c3ccc4c(c3O)C(=O)C3(O)C5(O)CC(C)C(O)C3(O4)C(=O)O5)c2O1 (stereo not drawn) [Compound 1, pseudopalawanone]
MIC (Micrococcus luteus; [10]): 66.7 µg/mL (≈ 104 µM) | MIC (Bacillus subtilis; [11]): 66.7 µg/mL (≈ 104 µM) | Minimum Inhibitory Concentration (MIC) (Escherichia coli): - | Minimum Inhibitory Concentration (MIC) (Pseudomonas aeruginosa): - | Minimum Inhibitory Concentration (MIC) (Mucor hiemalis; [12]): - | Minimum Inhibitory Concentration (MIC) [1]: - | MIC (Staphylococcus aureus; [13]): 66.7 µg/mL (≈ 104 µM) | IC50 (Mouse fibroblast L929; [14]): 50 µM | IC50 (HeLa cells KB3.1; [15]): 29.7 µM

Cc1ccc(C(=O)c2c(O)cccc2C(=O)O)c(O)c1 [Compound 5, cephalanone F]
Antimicrobial activity (in words) [2]: neither antimicrobial nor cytotoxic activities | Cytotoxic activity (in words) [3]: neither antimicrobial nor cytotoxic activities | Minimum Inhibitory Concentration (MIC) (Micrococcus luteus; [16]): - | Minimum Inhibitory Concentration (MIC) (Bacillus subtilis; [17]): - | Minimum Inhibitory Concentration (MIC) (Escherichia coli): - | Minimum Inhibitory Concentration (MIC) (Pseudomonas aeruginosa): - | Minimum Inhibitory Concentration (MIC) (Mucor hiemalis; [12]): - | Minimum Inhibitory Concentration (MIC) [1]: - | Minimum Inhibitory Concentration (MIC) (Staphylococcus aureus; [18]): - | IC50 (Mouse fibroblast L929; [14]): > 103 µM | IC50 (HeLa cells KB3.1; [15]): > 200 µM

C/C(=C\c1csc(C)n1)[C@@H]1C[C@@H]2O[C@]2(C)CCC[C@H](C)[C@H](O)[C@@H](C)C(=O)C(C)(C)[C@@H](O)CC(=O)O1 [Epothilone B, reference compound]
IC50 (Mouse fibroblast L929; Mus musculus, L929): 0.0018 µM | IC50 (HeLa cells KB3.1): 8.9e-05 µM

CN(C)[C@@H]1C(O)=C(C(N)=O)C(=O)[C@@]2(O)C(O)=C3C(=O)c4c(O)cccc4[C@@](C)(O)[C@H]3[C@H](O)[C@@H]12 [O, oxytetracycline hydrochloride, reference compound]
MIC (Micrococcus luteus; [10]): 0.4 µg/mL | MIC (Bacillus subtilis; [11]): 8.3 µg/mL | MIC (Escherichia coli; Escherichia coli, DSM1116, read-out: Minimum Inhibitory Concentration (MIC)): 3.3 µg/mL | MIC ([1]; Chromobacterium violaceum, DSM30191, read-out: Minimum Inhibitory Concentration (MIC)): 1.7 µg/mL | MIC (Staphylococcus aureus; [13]): 0.2 µg/mL

C[C@@H]1[C@H](O)[C@@H](C)/C=C/C=C/CC/C=C/C=C/C=C/C=C/C(O[C@H]2O[C@H](C)[C@@H](O)[C@H](N)[C@@H]2O)CC2O[C@](O)(CC(O)C(O)CCC(O)CC(O)CC(O)CC(=O)O[C@H]1C)CC(O)C2C(=O)O (stereo partly drawn) [N, nystatin]
Minimum Inhibitory Concentration (MIC) [4]: 33.3 (20 µL N) μg/mL | Minimum Inhibitory Concentration (MIC) (Candida albicans; strain DSM 1665, starting concentration 66.7 µg/mL, control volume in brackets): 66.7 (20 µL N) μg/mL | Minimum Inhibitory Concentration (MIC) (Cryptococcus neoformans): 66.7 (20 µL N) μg/mL | Minimum Inhibitory Concentration (MIC) (Pichia anomala): 66.7 (20 µL N) μg/mL | Minimum Inhibitory Concentration (MIC) (Rhodoturula glutinis): 16.7 (20 µL N) μg/mL

C[C@H]1CC(O)=C2C(=O)c3c(ccc(-c4ccc(O)c5c4O[C@]4(C(=O)O)C(=C(O)C[C@H](C)[C@@H]4O)C5=O)c3O)O[C@@]2(C(=O)O)[C@H]1O [Compound 3, penicillixanthone A]
Antibacterial activity (in words) (E. coli): moderate antibacterial activity | Cytotoxic effects (in words) [5]: moderate cytotoxic effects | Antibacterial activity (in words) (M. luteus): moderate antibacterial activity | Antibacterial activity (in words) [6]: moderate antibacterial activity | MIC (Micrococcus luteus; [10]): 33.3 µg/mL (≈ 54.5 µM) | MIC (Bacillus subtilis; [11]): 4.2 µg/mL (≈ 6.88 µM) | Minimum Inhibitory Concentration (MIC) (Escherichia coli): - | Minimum Inhibitory Concentration (MIC) (Pseudomonas aeruginosa): - | MIC (Mucor hiemalis; Mucor hiemalis, DSM6766, strain DSM 6766, starting concentration 66.7 µg/mL, control volume in brackets, read-out: Minimum Inhibitory Concentration (MIC)): 66.7 µg/mL (≈ 109 µM) | Inhibition of Mucor hiemalis (in words) (Mucor hiemalis; comparable to nystatin): inhibited | Minimum Inhibitory Concentration (MIC) [1]: - | MIC (Staphylococcus aureus; [13]): 33.3 µg/mL (≈ 54.5 µM) | Cytotoxic effects (in words) [7]: moderate cytotoxic effects | IC50 (Mouse fibroblast L929; [14]): > 103 µM | IC50 (HeLa cells KB3.1; [15]): 17.2 µM | Anti-HIV-1 activity (in words) (CCR5-tropic HIV-1): inhibiting | Anti-HIV-1 activity (in words) (CXCR4-tropic HIV-1): inhibiting | Antibacterial activity (in words) (B. subtilis): moderate antibacterial activity

NC[C@H]1O[C@H](O[C@H]2[C@H](O)[C@@H](O[C@H]3O[C@H](CO)[C@@H](O)[C@H](N)[C@H]3O)[C@H](N)C[C@@H]2N)[C@H](O)[C@@H](O)[C@@H]1O [K, kanamycin, reference compound]
Minimum Inhibitory Concentration (MIC) (Mycobacterium smegmatis; strain ATCC 700084, starting concentration 66.7 µg/mL, control volume in brackets): 3.3 (2 µL K) μg/mL

C[C@H]1CC(O)=C2C(=O)c3c(O)ccc(-c4ccc(O)c5c4O[C@]4(C(=O)O)C(=C(O)C[C@H](C)[C@H]4O)C5=O)c3O[C@@]2(C(=O)O)[C@@H]1O [Compound 2, 4,4′-secalonic acid D]
Toxicity (in words) [8]: low toxicity | Inhibitory activity against Gram-positive bacteria (in words) ([2]; Bacillus subtilis, Micrococcus luteus, Mycobacterium smegmatis, Staphylococcus aureus): showed inhibitory activity | MIC (Micrococcus luteus; DSM1790, read-out: Minimum Inhibitory Concentration (MIC)): 8.3 µg/mL (≈ 13.6 µM) | MIC (Bacillus subtilis; DSM10, read-out: Minimum Inhibitory Concentration (MIC)): 1 µg/mL (≈ 1.64 µM) | MIC (Candida albicans; Candida albicans, DSM1665, read-out: Minimum Inhibitory Concentration (MIC)): 66.7 µg/mL (≈ 109 µM) | Inhibition of Candida albicans (in words) (Candida albicans; comparable to nystatin): showed inhibition | Minimum Inhibitory Concentration (MIC) (Escherichia coli): - | Minimum Inhibitory Concentration (MIC) (Pseudomonas aeruginosa): - | Activity against Mycobacterium smegmatis (in words) (Mycobacterium smegmatis): showed activity | MIC (Mycobacterium smegmatis; Mycolicibacterium smegmatis, ATCC700084, read-out: Minimum Inhibitory Concentration (MIC)): 66.7 µg/mL (≈ 109 µM) | Minimum Inhibitory Concentration (MIC) (Mucor hiemalis; [12]): - | Minimum Inhibitory Concentration (MIC) [1]: - | MIC (Staphylococcus aureus; DSM346, read-out: Minimum Inhibitory Concentration (MIC)): 4.2 µg/mL (≈ 6.88 µM) | IC50 (Mouse fibroblast L929; [14]): 14.1 µM | IC50 (HeLa cells KB3.1; [15]): 3.9 µM | Antitumor activity (in words) [9]: “potent” antitumor activity

COC(=O)C1(C2OC(=O)CC2C)CC(=O)c2c(O)cccc2O1 (stereo not drawn) [Compound 4, paecilin B]
Antimicrobial activity (in words) [2]: neither antimicrobial nor cytotoxic activities | Cytotoxic activity (in words) [3]: neither antimicrobial nor cytotoxic activities | Minimum Inhibitory Concentration (MIC) (Micrococcus luteus; [16]): - | Minimum Inhibitory Concentration (MIC) (Bacillus subtilis; [17]): - | Minimum Inhibitory Concentration (MIC) (Escherichia coli): - | Minimum Inhibitory Concentration (MIC) (Pseudomonas aeruginosa): - | Minimum Inhibitory Concentration (MIC) (Mucor hiemalis; [12]): - | Minimum Inhibitory Concentration (MIC) [1]: - | Minimum Inhibitory Concentration (MIC) (Staphylococcus aureus; [18]): - | IC50 (Mouse fibroblast L929; [14]): > 103 µM | IC50 (HeLa cells KB3.1; [15]): > 200 µM
